Patent publication US12459951B2, “Compounds that interact with RAS superfamily proteins for treatment of cancers, inflammatory diseases, rasopathies, and fibrotic disease” (SHY Therapeutics, LLC, priority 2022, dated 2025)

Key:
JNK phosphorylation = experiment: JNK Activation Assay (western blot), Panc-1; assay type: cell-based, human; details: at 10 μM, Panc-1 pancreatic cancer cell line; starred symbols = activation
Protocol: Protocol for JNK Activation Assay
This assay is referred to as the “JNK Activation Assay” throughout this application.
Cell lines: Human tumor-derived pancreatic cancer cell line Panc-1 (expressing KRas […] mutant) was purchased from American Type Culture Collection and grown in complete DMEM-High Glucose medium, supplemented with penicillin (100 U/mL), streptomycin (100 μg/mL), and 10% heat-inactivated FBS at 37° C. in a humidified incubator with 5% CO2.
Method 1: Cells were plated at 350000 cells/well density in a 12-well plate, allowed 3 hours to adhere to the plate, then starved in the appropriate medium in the presence of 0.5% FBS overnight. The small molecules to be tested were added to the cells in the final concentration of 10 μM in the presence of 0.3% DMSO for 6 hours incubation at 37° C. For IC50 value determination, serial dilutions of compounds were added to cells under the same conditions. Next, cells were stimulated with 1.5 ng/ml EGF for 15 minutes then cells were lysed with lysis buffer containing 1% Triton X-100, EDTA, and Halt™ Protease & Phosphatase Inhibitor Cocktail (Thermo Scientific). Protein concentration was assessed by BCA protein assay (Thermo Scientific). Phosphorylation level of JNK was determined by western blot.
Method 2: Cells were plated at 350000 cells/well density in a 12-well plate in the presence of 10% FBS. The next day small molecules to be tested were added to the cells in the final concentration of 10 μM in the presence of 0.3% DMSO for 6 hours incubation at 37° C. For IC50 value determination, serial dilutions of compounds were added to cells under the same conditions. Next, cells were lysed with lysis buffer containing 1% Triton X-100, EDTA, and Halt™ Protease & Phosphatase Inhibitor Cocktail (Thermo Scientific). Protein concentration was assessed by BCA protein assay (Thermo Scientific). Phosphorylation level of JNK was determined by western blot.
Western blot protocol: Equal amounts of protein (15-50 μg) were separated by SDS-PAGE and transferred to nitrocellulose membranes (Invitrogen by Thermo Fisher Scientific). The membrane was stained with Ponceau S Stain (Boston BioProducts) to verify uniform protein loading. Membranes were blocked with 10% milk and phosphorylation levels of JNK were assessed by incubating overnight at 4° C. with the antibody Phospho-SAPK/JNK (Thr183/Tyr185), from Cell Signaling Technology. Then the membranes were incubated with HRP-conjugated secondary antibody (Jackson Immunoresearch, West Grove, PA). Bands were incubated in Amersham ECL Prime Western Blotting Detection Reagent (GE Healthcare) and visualized using the ChemiDoc MP imaging system (Bio-Rad).

KRas G12C mutant = experiment: Ras GTP Binding Domain Inhibition Assay (Ras Superfamily Assay); details: for KRas G12C mutant + SOS: % inh.: with SOS; for KRas G12C mutant: % inh.: without SOS
Outline: (§1)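 His-tagged GTPases immobilised on nickel-coated plates, pre-incubated with compound (20 μM single point, or serial dilution for IC50) 3 h at room temperature, with or without 10-30 μg/mL Sos (residues 556-1049) in the final hour. Bound Cy3- or Cy5-GTP (100 nM, 45 min) measured by fluorescence after washing.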

KRas Q61H mutant = experiment: as above; details: 20 μM compound; for KRas Q61H mutant + SOS: % inh.: with SOS; for KRas Q61H mutant: % inh.: without SOS
Outline: as §1

[1] = Mouse Liver Microsome Metabolic Stability Assay; assay type: in vitro ADME; details: pH 7.4, Mouse liver microsomes, 37° C., NADPH, read-out: t½
Protocol: Biological Example 10: Assessment of Metabolic Stability in Mouse Liver Microsomes
Metabolic Stability Assay: Microsomal incubations were carried out in 96-well plates in 5 aliquots of 30 μL each (one for each time point). Liver microsomal incubation medium comprised of phosphate buffer (100 mM, pH 7.4), MgCl2 (3.3 mM), NADPH (3 mM), glucose-6-phosphate (5.3 mM), glucose-6-phosphate dehydrogenase (0.67 units/ml) with 0.42 mg of liver microsomal protein per mL. In the control reactions the NADPH-cofactor system was substituted with phosphate buffer. Test compounds (2 μM, final solvent concentration 1.6%) were incubated with microsomes at 37° C., shaking at 100 rpm. Each reaction was performed in duplicates. Five time points over 40 minutes were analyzed. The reactions were stopped by adding 5 volumes of methanol containing internal standard to incubation aliquots, followed by protein sedimentation by centrifuging at 5500 rpm for 4 minutes. Supernatants were analyzed using the HPLC system coupled with tandem mass spectrometer.
The elimination constant (kel), half-life (t1/2) and intrinsic clearance (Clint) were determined in plot of […] versus time, using linear regression analysis:
In order to indicate the quality of the linear regression analysis, the R (correlation coefficient) values are provided. In some cases, the last time point is excluded from the calculations to ensure acceptable logarithmic linearity of decay.
Table 9 show metabolic stability data for selected compounds tested in the Mouse Liver Microsome Metabolic Stability assay described above.

KRas G12C mutant + SOS: % inh. (KRas G12C mutant; 20 μM compound)	KRas G12C mutant: % inh. (KRas G12C mutant; 20 μM compound)	KRas Q61H mutant + SOS: % inh. (KRas Q61H mutant)	KRas Q61H mutant: % inh. (KRas Q61H mutant)	KRas G12C mutant + SOS: % inh. (KRas G12C mutant; at 20 μM)	KRas G12C mutant: % inh. (KRas G12C mutant; at 20 μM)	half-life at 2 µM [1]	Compound	% inh of JNK in Panc-1 (JNK phosphorylation)
						< 10 min	Cc1c(-c2ccn(C)n2)cn2nc(-c3nccn3C)nc(Nc3cc(N4CCOCC4)ccn3)c12 [Compound 222, 5-Methyl-2-(1-methyl-1H-imidazol-2-yl)-6-(1-methyl-1H-pyrazol-3-yl)-N-(4-morpholinopyridin-2-yl)pyrrolo[2,1-f][1,2,4]triazin-4-amine]	
						> 10 min	COc1ccc(Nc2nc(-c3nccn3C)nn3cc(-c4ccn(C)n4)c(C)c23)nc1 [Compound 224, N-(5-Methoxypyridin-2-yl)-5-methyl-2-(1-methyl-1H-imidazol-2-yl)-6-(1-methyl-1H-pyrazol-3-yl)pyrrolo[2,1-f][1,2,4]triazin-4-amine]	
						> 10 min	Cc1ccc(Nc2nc(-c3nccn3C)nn3cc(-c4ccn(C)n4)c(C)c23)nc1 [Compound 226, 5-Methyl-2-(1-methyl-1H-imidazol-2-yl)-6-(1-methyl-1H-pyrazol-3-yl)-N-(5-methylpyridin-2-yl)pyrrolo[2,1-f][1,2,4]triazin-4-amine]	
						> 10 min	Cc1c(-c2ccn(C)n2)cn2nc(-c3nccn3C)nc(Nc3ccc(N(C)C)cn3)c12 [Compound 227, N5,N5-Dimethyl-N2-(5-methyl-2-(1-methyl-1H-imidazol-2-yl)-6-(1-methyl-1H-pyrazol-3-yl)pyrrolo[2,1-f][1,2,4]triazin-4-yl)pyridine-2,5-diamine]	
						> 10 min	COc1cc(Nc2nc(-c3nccn3C)nn3cc(-c4ccn(C)n4)c(C)c23)ncc1C [Compound 235, N-(4-Methoxy-5-methylpyridin-2-yl)-5-methyl-2-(1-methyl-1H-imidazol-2-yl)-6-(1-methyl-1H-pyrazol-3-yl)pyrrolo[2,1-f][1,2,4]triazin-4-amine]	
						> 10 min	COc1cc(Nc2nc(-c3nccn3C)nn3cc(-c4ccn(C)n4)c(C)c23)ncc1C1CC1 [Compound 238, N-(5-Cyclopropyl-4-methoxypyridin-2-yl)-5-methyl-2-(1-methyl-1H-imidazol-2-yl)-6-(1-methyl-1H-pyrazol-3-yl)pyrrolo[2,1-f][1,2,4]triazin-4-amine]	

The next lines start with the compound.

Compound	KRas G12C mutant + SOS: % inh. (KRas G12C mutant; 20 μM compound)	KRas G12C mutant: % inh. (KRas G12C mutant; 20 μM compound)	KRas Q61H mutant + SOS: % inh. (KRas Q61H mutant)	KRas Q61H mutant: % inh. (KRas Q61H mutant)	KRas G12C mutant + SOS: % inh. (KRas G12C mutant; at 20 μM)	KRas G12C mutant: % inh. (KRas G12C mutant; at 20 μM)	half-life at 2 µM [1]	% inh of JNK in Panc-1 (JNK phosphorylation)
COCC1CCN(c2nc(-c3ccccn3)nn3cc(-c4ccn(C(C)C)n4)c(C)c23)C1 (racemic) [Compound 10, rac 6-(1-Isopropyl-1H-pyrazol-3-yl)-4-(3-(methoxymethyl)pyrrolidin-1-yl)-5-methyl-2-(pyridin-2-yl)pyrrolo[2,1-f][1,2,4]triazine]	0 (0 = 0% inhibition)	B (B = 26-49% inhibition)	0 (0 = 0% inhibition)	A (A = 1-25% inhibition)				E* (E* = 1-30% activation)
COC[C@@H]1CC[C@@H]1CNc1nc(-c2ccccn2)nn2cc(-c3ccn(C(C)C)n3)c(C)c12 (racemic) [Compound 11, rac 6-(1-Isopropyl-1H-pyrazol-3-yl)-N-(((1S,2R)-2-(methoxymethyl)cyclobutyl)methyl)-5-methyl-2-(pyridin-2-yl)pyrrolo[2,1-f][1,2,4]triazin-4-amine]	0 (0 = 0% inhibition)	B (B = 26-49% inhibition)	0 (0 = 0% inhibition)	A (A = 1-25% inhibition)				G* (G* = 75-99% activation)
COC1CCCN(c2nc(-c3ccccn3)nn3cc(-c4ccn(C(C)C)n4)c(C)c23)C1 (racemic) [Compound 12, rac 6-(1-Isopropyl-1H-pyrazol-3-yl)-4-(3-methoxypiperidin-1-yl)-5-methyl-2-(pyridin-2-yl)pyrrolo[2,1-f][1,2,4]triazine]	0 (0 = 0% inhibition)	B (B = 26-49% inhibition)	0 (0 = 0% inhibition)	0 (0 = 0% inhibition)				E* (E* = 1-30% activation)
COc1cc(Nc2nc(-c3ccccn3)nn3cc(-c4ccn(C(C)C)n4)c(C)c23)ncn1 [Compound 13, 6-(1-Isopropyl-1H-pyrazol-3-yl)-N-(6-methoxypyrimidin-4-yl)-5-methyl-2-(pyridin-2-yl)pyrrolo[2,1-f][1,2,4]triazin-4-amine]	0 (0 = 0% inhibition)	A (A = 1-25% inhibition)	0 (0 = 0% inhibition)	0 (0 = 0% inhibition)				H* (H* ≥ 100% activation)
COc1cccc(Nc2nc(-c3ccccn3)nn3cc(-c4ccn(C(C)C)n4)c(C)c23)n1 [Compound 14, 6-(1-Isopropyl-1H-pyrazol-3-yl)-N-(6-methoxypyridin-2-yl)-5-methyl-2-(pyridin-2-yl)pyrrolo[2,1-f][1,2,4]triazin-4-amine]	0 (0 = 0% inhibition)	B (B = 26-49% inhibition)	0 (0 = 0% inhibition)	0 (0 = 0% inhibition)				F* (F* = 31-74% activation)
COc1cccc(-c2cn3nc(-c4nccn4C)nc(O)c3c2C)c1Cl [Compound 15, 6-(2-Chloro-3-methoxyphenyl)-5-methyl-2-(1-methyl-1H-imidazol-2-yl)pyrrolo[2,1-f][1,2,4]triazin-4-ol]	0 (0 = 0% inhibition)	0 (0 = 0% inhibition)	A (A = 1-25% inhibition)	A (A = 1-25% inhibition)				F* (F* = 31-74% activation)
COCCNc1nc(-c2nccn2C)nn2cc(-c3cccc(OC)c3Cl)c(C)c12 [Compound 16, 6-(2-Chloro-3-methoxyphenyl)-N-(2-methoxyethyl)-5-methyl-2-(1-methyl-1H-imidazol-2-yl)pyrrolo[2,1-f][1,2,4]triazin-4-amine]	0 (0 = 0% inhibition)	B (B = 26-49% inhibition)	0 (0 = 0% inhibition)	A (A = 1-25% inhibition)				F* (F* = 31-74% activation)
Cc1c(-c2ccn(C)n2)cn2nc(-c3nccn3C)nc(N)c12 [Compound 211, 5-Methyl-2-(1-methyl-1H-imidazol-2-yl)-6-(1-methyl-1H-pyrazol-3-yl)pyrrolo[2,1-f][1,2,4]triazin-4-amine]					D (D = 76-100% inhibition)	C (C = 50-75% inhibition)		
